Results published in US5147878A, “Aminoalkoxyphenyl derivatives, process of preparation and compositions containing the same” (Sanofi, priority 1986, dated 1992).
Counter-ions that a name gives are not always drawn.

Test system: isolated rat aorta
Test: Calcium inhibitory properties: contractile response to potassium-induced depolarization on isolated rat aorta
Design: species or system isolated organ, male Wistar rats
Settings: for activity at 1 µM / activity at 0.1 µM / activity at 0.01 µM / activity at 0.001 µM: Rattus norvegicus, 1 h, read-out: % of the maximum contractional effect; for % of the maximum contractional effect: 60 min
Description: It is well established that the depolarization of a smooth muscle membrane by potassium renders the latter permeable to extracellular calcium and induces muscle contraction. Consequently, the measurement of the inhibition of the contractile response to depolarization by potassium, or the measurement of a relaxation of the tonic contraction on potassium depolarization, can represent an evaluation of the power of a compound as an inhibitor of the membrane permeability to Ca^++ ions. The technique used was as follows: The aorta was removed from male Wistar rats weighing approximately 300 g, and cut into strips approximately 40 mm long and 3 mm wide. These fragments were placed in a 25-ml isolated organ trough containing a modified Krebs-bicarbonate solution (112 mM NaCl; 5 mM KCl; 25 mM NaHCO3; 1 mM KH2 PO4; 1.2 mM MgSO4; 2.5 mM CaCl2; 11.5 mM glucose, distilled water to 1000 ml) through which a stream of 5-7% carbon dioxide in oxygen was passed, and maintained at 37° C. The preparation was connected to a force microsensor and the contractile response recorded after amplification on a recorder. A tension of 2 g was applied to the preparation. This tension was maintained for 60 minutes in the modified Krebs-bicarbonate solution, and contractions were then induced by replacing the Krebs-bicarbonate solution by a potassium-Krebs solution (17 mM NaCl; 100 mM KCl; 25 mM NaHCO3; 1 mM KH2 PO4; 1.2 mM MgSO4; 2.5 mM CaCl2; 11.5 mM glucose; distilled water to 1000 ml). When the contractile response of the preparation had become reproducible, a given amount of a compound of the invention was introduced into the bath. Sixty minutes later, a new spasm was induced by potassium depolarization. The results obtained on the aorta used in the experiment were then expressed as a percentage of the maximum contractional effect before incubation with the test substance. By way of examples, the results which follow were obtained, the compounds of formula (1) being in the form of the base, hydrochloride or oxalate.

[1] = head printed "10^-" (exponent missing; first of three columns before 10^-6 M)

Row | SMILES | activity at 1 µM (10^-6 M) | activity at 0.1 µM (10^-7 M) | activity at 0.01 µM (10^-8 M) | other results
1 | CC(C)c1cn2ccccc2c1S(=O)(=O)c1ccc(OCCCN2CCC(c3ccccc3)CC2)cc1 [Ex. 35, 2-Isopropyl-1-{4-[3-(4-phenylpiperidino)propyloxy]-benzenesulphonyl}indolizine] | 8.3% | 25% | 65.6% | –
2 | COc1cc(CCN(C)CCCOc2ccc(S(=O)(=O)c3c(C(C)C)cn4ccccc34)cc2)cc(OC)c1OC [Ex. 134, 2-isopropyl-1-[4-{3-[N-methyl-N-(3,4,5-trimethoxy-β-phenethyl)amino]propyloxy}benzenesulphonyl]indolizine acid oxalate] | – | 18.9% | 21.4% | activity at 0.001 µM (10^-9 M): 65.7%
3 | CC(C)c1cn2ccccc2c1S(=O)(=O)c1ccc(OCCCNCCc2ccccc2)cc1 [Ex. 31, 2-Isopropyl-1-{4-[3-(β-phenethylamino)propyloxy]benzenesulphonyl}indolizine hydrochloride] | 16.8% | 31.8% | 73.9% | –
4 | CCCCN(CCCC)CCCOc1ccc(S(=O)(=O)c2ccccn2)cc1 [Ex. 58, 2-{4-[3-(di-n-butylamino)propyloxybenzenesulphonyl}pyridine oxalate] | 84.7% | 88.9% | – | % of the maximum contractional effect [1]: 37%
5 | COc1ccc(CCN(C)CCCOc2ccc(S(=O)(=O)c3c(C(C)C)oc4ccccc34)cc2)cc1OC.O=C(O)C(=O)O [Ex. 90, 2-Isopropyl-3-[4-{3-[N-methyl-N-(3,4-dimethoxy-β-phenethyl)amino]propyloxy}benzenesulphonyl]benzofuran acid oxalate] | – | – | – | % of the maximum contractional effect (10^-6 M, 1 µM): 0%; % of the maximum contractional effect (10^-7 M, 0.1 µM): 21.3%; % of the maximum contractional effect (10^-8 M, 0.01 µM): 56.9%
6 | COc1ccc(CCN(C)CCCOc2ccc(S(=O)(=O)c3ccc4ccccc4c3)cc2)cc1OC [Ex. 103, 2-[4-{3-[N-methyl-N-(3,4-dimethoxy-β-phenethyl)amino]propyloxy}benzenesulphonyl]-naphthalene acid oxalate] | 16.8% | 62.8% | 83.3% | –
7 | CCCCN(CCCC)CCCOc1ccc(S(=O)(=O)c2ncsc2-c2ccccc2)cc1 [Ex. 124, 4-{4-[3-(di-n-butylamino)propyloxy]benzenesulphonyl}-5-phenyl-thiazole acid oxalate] | 13.7% | 66.7% | 90.6% | –
8 | COc1cc(CCNCCCOc2ccc(S(=O)(=O)c3c(C(C)C)cn4ccccc34)cc2)cc(C)c1OC.O=C(O)C(=O)O [Ex. 139, 2-isopropyl-1-[4-{3-[N-(3,4-dimethoxy-5-methyl-β-phenethyl)amino]propyloxy}benzenesulphonyl]-indolizine acid oxalate] | – | – | – | % of the maximum contractional effect (10^-8 M, 0.01 µM): 49%; % of the maximum contractional effect (10^-9 M, 0.001 µM): 89%
9 | CCCCN(CCCC)CCCOc1ccc(S(=O)(=O)c2c(C(C)C)n(C)c3ccccc23)cc1 [Ex. 110, 1-Methyl-2-isopropyl-3-{4-[3-(di-n-butylamino)propyloxy]benzenesulphonyl}indole acid oxalate] | 0% | 15.1% | 71% | activity at 0.001 µM (10^-9 M): 84.6%
10 | COc1ccc(CN(C)CCOc2ccc(S(=O)(=O)c3c(C(C)C)oc4ccccc34)cc2)cc1OC [Ex. 89, 2-Isopropyl-3-[4-{2-[N-methyl-N-(3,4-dimethoxy-benzyl)amino]ethyloxy}benzenesulphonylbenzofuran hemioxalate] | – | 4.7% | 53.3% | activity at 0.001 µM (10^-9 M): 83.9%
11 | CCCCCCCCN(CCCCCCCC)CCCOc1ccc(S(=O)(=O)c2c(C(C)C)cn3ccccc23)cc1 [Ex. 36, 2-Isopropyl-1-{4-[3-(di-n-octylamino)propyloxy]-benzenesulphonyl}indolizine] | 83.3% | 93.7% | – | –
12 | CCCN(CCC)CCCOc1ccc(S(=O)(=O)c2c(C)cn3ccccc23)cc1 [Ex. 5, 2-Methyl-1-{4-[3-(di-n-propylamino)propyloxy]benzenesulphonyl}indolizine] | 48.9% | – | – | –
13 | CC(C)(C)NCCCOc1ccc(S(=O)(=O)c2ccccn2)cc1 [Ex. 62, 2-{4-[3-(tertiobutylamino)propyloxy]benzenesulphonyl}pyridine oxalate] | 87.1% | – | – | % of the maximum contractional effect [1]: 70.6%
14 | CC(C)(C)NCCCOc1ccc(S(=O)(=O)c2c(-c3ccccc3)cn3ccccc23)cc1 [Ex. 24, 2-Phenyl-1-{4-[3-(tert-butylamino)propyloxy]benzenesulphonyl}indolizine hydrochloride] | 62.1% | – | – | –
15 | COc1ccc(CCN(C)CCCOc2ccc(S(=O)(=O)c3ccccc3C(C)C)cc2)cc1OC [Ex. 114, 2-isopropyl-1-[4-{3-[N-methyl-N-(3,4-dimethoxy-β-phenethyl)amino]propyloxy}benzenesulphonyl]benzene acid oxalate] | 3.7% | 21.7% | 59.3% | activity at 0.001 µM (10^-9 M): 93.3%
16 | CC(C)c1oc2ccccc2c1S(=O)(=O)c1ccc(OCCCNCCc2ccc3c(c2)OCO3)cc1.O=C(O)C(=O)O [Ex. 95, 2-Isopropyl-3-[4-{3-[N-[3-(1,3-benzodioxolyl)]-β-ethyl]amino]propyloxy}benzenesulphonyl benzofuran acid oxalate] | – | – | – | % of the maximum contractional effect (10^-6 M, 1 µM): 13.6%; % of the maximum contractional effect (10^-7 M, 0.1 µM): 50.6%; % of the maximum contractional effect (10^-8 M, 0.01 µM): 81.4%
17 | COc1ccc(CCN(C)CCCOc2ccc(S(=O)(=O)c3cc4ccccc4nn3)cc2)cc1OC [Ex. 81, 3-[4-{3-[N-methyl-N-(3,4-dimethoxy-β-phenethyl)amino]propyloxy}benzenesulphonyl]cinnoline oxalate] | 73.1% | 86.6% | – | % of the maximum contractional effect [1]: 19.2%
18 | COc1ccc(CCN(C)CCCOc2ccc(Sc3cnnc4ccccc34)cc2)cc1OC [Ex. 80, 4-[4-{3-[N-methyl-N-(3,4-dimethoxy-β-phenethyl)amino]propyloxy}phenylthio]cinnoline oxalate] | 64.2% | 85.4% | – | % of the maximum contractional effect [1]: 3.0%
19 | COc1ccc(CN(C)CCCOc2ccc(S(=O)(=O)c3c(C(C)C)n(C)c4ccccc34)cc2)cc1OC [Ex. 111, 1-Methyl-2-isopropyl-3-[4-{3-[N-methyl-N-(3,4-dimethoxy-benzyl)amino]propyloxy}benzenesulphonyl]indole acid oxalate] | – | 11.8% | 25% | activity at 0.001 µM (10^-9 M): 81.8%
20 | COc1ccc(CCN(C)CCCOc2ccc(S(=O)(=O)c3c(C(C)C)[nH]c4ccccc34)cc2)cc1OC [Ex. 105, 2-isopropyl-3-[4-{3-[N-methyl-N-(3,4-dimethoxy-β-phenethyl)amino]propyloxy}benzenesulphonyl]indole hemioxalate] | – | 11.9% | 62.9% | activity at 0.001 µM (10^-9 M): 83.6%
21 | CCCCN(CCCC)CCCOc1ccc(S(=O)(=O)c2c(-c3ccccc3)noc2C(C)C)cc1 [Ex. 126, 4-{4-[3-(di-n-butylamino)propyloxy]benzenesulphonyl}-5-isopropyl-3-phenyl-isoxazole] | 10% | 38.7% | 75.8% | –
22 | CC(C)c1ccccc1S(=O)(=O)c1ccc(OCCCNC(C)(C)C)cc1 [Ex. 118, 2-isopropyl-1-[4-{3-(tert-butylamino)propyloxy}benzenesulphonyl]benzene acid oxalate] | 2.7% | 52.2% | 92.3% | –
23 | CCc1cn2ccccc2c1S(=O)(=O)c1ccc(OCCCn2ccnc2)cc1 [Ex. 38, 2-Ethyl-1-{4-[3-(1-imidazolyl)propyloxy]benzenesulphonyl}indolizine] | – | 85.9% | – | –
24 | CCCCN(CCCC)CCOc1ccc(S(=O)(=O)c2c(CC)cn3ccccc23)cc1 [Ex. 22, 2-Ethyl-1-{4-[2-(di-n-butylamino)ethyloxy]benzenesulphonyl}indolizine hydrochloride] | – | 37% | 90.2% | –
25 | CCc1sc2c(c1S(=O)(=O)c1ccc(OCCCN(C)CCc3ccc(OC)c(OC)c3)cc1)CN(Cc1ccccc1Cl)CC2 [Ex. 120, 5-(2-chloro-benzyl)-2-ethyl-3-[4-{3-[N-methyl-N-(3,4-dimethoxy-β-phenethyl)amino]propyloxy}benzenesulphonyl]-4,5,6,7-tetrahydrothieno[3,2-c]pyridine oxalate] | 59.8% | 68.7% | 91.4% | –
